Structures are written as SMILES. A value given as a limit tells only on which side of the number the result lay.

For the assay, the target named is T1, CCXCKR2 receptor (Homo sapiens, UniProt P25106).
T1 construct: host or cells: MCF-7 (endogenous) and/or MDA-MB-435S transfected with hRDC1 in pcDNA3.1(+)
T1 sequence (P25106 whole entry): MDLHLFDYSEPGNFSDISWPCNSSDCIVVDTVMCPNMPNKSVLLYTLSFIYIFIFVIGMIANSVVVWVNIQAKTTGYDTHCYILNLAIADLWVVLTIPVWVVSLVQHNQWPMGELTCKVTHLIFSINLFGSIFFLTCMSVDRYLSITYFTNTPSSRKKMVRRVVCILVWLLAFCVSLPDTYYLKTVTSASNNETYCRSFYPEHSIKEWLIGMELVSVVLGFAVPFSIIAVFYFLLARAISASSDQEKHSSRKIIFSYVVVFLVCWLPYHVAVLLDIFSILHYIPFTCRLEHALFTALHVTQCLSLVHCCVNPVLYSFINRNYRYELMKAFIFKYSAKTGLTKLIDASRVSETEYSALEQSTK
Nature of the assay: Displacement of 125I-labeled SDF-1 from the CCXCKR2 receptor (radioligand binding, determination of IC50 values). Particulars: MCF-7 and/or MDA-MB-435S cells expressing CCXCKR2; 125I SDF-1; 3 hr at 4° C.; read-out: Activity (ability to displace 125I SDF-1 from CCXCKR2). As to the method:
The ability of the compounds to displace the labeled chemokine from the CCXCKR2 receptor sites at multiple concentrations was then determined with the screening process.
Compounds that were deemed effective modulators were able to displace at least 50% of the SDF-1 from the CCXCKR2 receptor at concentrations at or below 10 micromolar (μM) and more preferably at concentrations at or below 2 micromolar. At present, especially preferred compounds can displace at least 50% of the SDF-1 from the CCXCKR2 receptor at concentrations at or below 500 nM. Exemplary compounds that met these criteria are reproduced in Table B below. All compounds were prepared as described in the Examples above, or by related methods substituting readily available starting materials.
Reagents and Cells. ^125I-labeled SDF-1 was purchased from Perkin-Elmer Life Sciences, Inc. (Boston, Mass.). The MCF-7 (adenocarcinoma; mammary gland) cell line was obtained from the American Type Culture Collection (Manassas, Va.) or and was cultured in DMEM (Mediatech, Herndon, Va.) supplemented with 10% fetal bovine serum (FBS) (HyClone Logan, Utah) and bovine insulin (0.01 mg/mL) (Sigma, St. Louis, Mo.) at 37° C. in a humidified incubator at a 5% CO2/air mixture. CCXCKR2 transfected MDA-MB-435S were produced as described below. MDA-MB-435S human breast cancer line, was purchased from ATCC, and cultured in DMEM/10% FBS medium. The complete coding sequence of the gene encoding CCXCKR2 (a.k.a.CXCR7, hRDC1), was isolated from MCF-7 cells using μMACs mRNA isolation kit (Miltenyi Biotec, Auburn, Calif.). DNA contamination was removed by DNase digestion via RNeasy columns (Qiagen, Inc., Valencia, Calif.) and cDNA was generated using GeneAmp RNA PCR Core Kit (Applied Biosystems, Foster City, Calif.). PCR of cDNA samples was performed using Taq PCR Master Mix kit (Qiagen, Inc.) and hRDC1 primers harboring 5′ and 3′ Not I sites (hRDC1F 5′-[…]-3′ (SEQ ID NO:1), hRDC1R 5′-[…]-3′ (SEQ ID NO:2)) Not I digested PCR product was ligated into Not I digested pcDNA3.1(+)(Invitrogen, Carlsbad, Calif.) and screened for orientation and sequence confirmed. Plasmid DNA was then isolated from overnight bacterial cultures by Maxiprep (Qiagen, Inc.). Plasmid DNA (10 μg) was added to MDA-MB-435s cells and cells were electroporated (0.22 kV, 960 uF) via Gene Pulser (Biorad laboratories, Hercules, Calif.). 48 hr post-electroporation, cells were transferred to selection medium (1000 ug/ml G418).
Binding Analysis. Target compounds were tested to determine their ability to bind with CCXCKR2 sites on MCF-7 and/or MDA-MB-435S cells. Efficiency-maximized radioligand binding using filtration protocols as described in Dairaghi D J, et al., HHV8-encoded vMIP-I selectively engages chemokine receptor CCR5. Agonist and antagonist profiles of viral chemokines., J. Biol. Chem. 1999 Jul. 30; 274(31): 21569-74 and Gosling J, et al., Cutting edge: identification of a novel chemokine receptor that binds dendritic cell-and T cell-active chemokines including ELC, SLC, and TECK., J. Immunol. 2000 Mar. 15; 164(6):2851-6 was used.
In these assays, MCF-7 and/or MDA-MB-435S cells were interrogated with the target compounds and the ability of these compounds to displace ^125I radiolabeled SDF-1 was assessed using the protocol described in Dairaghi and Gosling. The target compounds were added to the plate to the indicated concentration and were then incubated with cells followed by the addition of radiolabeled chemokine (^125I SDF-1) for 3 hr at 4° C. in the following binding medium (25 mM HEPES, 140 mM NaCl, 1 mM CaCl2, 5 mM MgCl2 and 0.2% bovine serum albumin, adjusted to pH 7.1). All assays were then incubated for 3 hrs at 4° C. with gentle agitation. Following incubation in all binding assays, reactions were aspirated onto PEI-treated GF/B glass filters (Packard) using a cell harvester (Packard) and washed twice (25 mM HEPES, 500 mM NaCl, 1 mM CaCl2, 5 mM MgCl2, adjusted to pH 7.1). […]
Background: In a radioligand displacement assay an active substance lowers the binding of a labelled ligand.
For the compound `COc1cc(C(=O)N(Cc2cc3ccccc3o2)C[C@@H]2C[C@@H]3CCCC[C@@H]3N2)cc2c1OC(C)(C)O2` [Example 57, 7-Methoxy-2,2-dimethyl-benzo[1,3]dioxole-5-carboxylic acid benzofuran-2-ylmethyl-[(2S,3aS,7aS)-1-(octahydro-indol-2-yl)methyl]-amide], the IC50 is below 500 nM.
In the case of `COc1cc(C(=O)N(C[C@@H]2CCCN2)c2cccc(-c3ccccc3)c2)ccc1OC(F)F` [Example 31, N-Biphenyl-3-yl-4-difluoromethoxy-3-methoxy-(S)—N-pyrrolidin-2-ylmethyl-benzamide] it was below 500 nM; in that of `COc1cc(C(=O)N(Cc2cc3ccccc3o2)C[C@@H]2CCCN2CC2CCCCC2)cc(OC)c1OC` [Example 4, N-Benzofuran-2-ylmethyl-N—(S)-(1-cyclohexylmethyl-pyrrolidin-2-ylmethyl)-3,4,5-trimethoxy-benzamide], below 500 nM; in that of `COc1cc(C(=O)N(Cc2nc(-c3ccccc3)sc2Cl)C[C@@H]2C[C@@H]3CCCC[C@@H]3N2)cc2c1OC(C)(C)O2` [Example 79, 7-Methoxy-2,2-dimethyl-benzo[1,3]dioxole-5-carboxylic acid (5-chloro-2-phenyl-thiazol-4-ylmethyl)-[(2S,3aS,7 aS)-1-(octahydro-indol-2-yl)methyl]-amide], below 500 nM.
In the case of `COc1ccc(C(=O)N(C[C@@H]2CCCN2CCO)c2cccc(-c3ccccc3)c2)cc1OC` [Example 22, N-Biphenyl-3-yl-(S)—N[1-(2-hydroxy-ethyl)-pyrrolidin-2ylmethyl]-3,4-dimethoxy-benzamide] it was below 500 nM; in that of `COc1cc(C(=O)N(Cc2cnc3ccccc3c2)C[C@@H]2C[C@@H]3CCCC[C@@H]3N2)cc2c1OC(C)(C)O2`, below 2000 nM; in that of `COc1cc(C(=O)N(C[C@@H]2C[C@@H]3CCCC[C@@H]3N2)C(C)c2ccc3ccccc3n2)cc2c1OC(C)(C)O2` (stereo partly drawn) [Example 71, 7-Methoxy-2,2-dimethyl-benzo[1,3]dioxole-5-carboxylic acid [(2S,3aS,7aS)-1-(octahydro-indol-2-yl)methyl]-(1-quinolin-2-yl-ethyl)-amide], below 500 nM.
In the case of `COc1ccc(C(=O)N(C[C@@H]2CCCN2CC2CC2)c2cccc(-c3ccc(N(C)C)cc3)c2)cc1OC` [Example 37, (S)—N-(1-Cyclopropylmethyl-pyrrolidin-2-ylmethyl)-N-(4′-dimethylamino-biphenyl-3-yl)-3,4-dimethoxy-benzamide] it was below 10000 nM; in that of `COc1cc(C(=O)N(Cc2cc3ccccc3cn2)C[C@@H]2C[C@@H]3CCCC[C@@H]3N2)cc2c1OC(C)(C)O2` [Example 64, 7-Methoxy-2,2-dimethyl-benzo[1,3]dioxole-5-carboxylic acid isoquinolin-3-ylmethyl-[(2S,3aS,7aS)-1-(octahydro-indol-2-yl)methyl]-amide], below 500 nM; in that of `COc1cc(C(=O)N(Cc2ccc3ccccc3n2)C[C@@H]2C[C@@H]3CCCC[C@@H]3N2)cc2c1OC(C)(C)O2` [Example 70, 7-Methoxy-2,2-dimethyl-benzo[1,3]dioxole-5-carboxylic acid [(2S,3aS,7aS)-1-(octahydro-indol-2-yl)methyl]-quinolin-2-ylmethyl-amide], below 500 nM.
On to `COc1cc(C(=O)N(CCC2CCCN2C)Cc2cc3ccccc3[nH]2)cc(OC)c1OC` (stereo not shown) [Example 15, N-(1H-Indol-2ylmethyl)-3,4,5-trimethoxy-N-[2-(1-methyl-pyrrolidin-2-yl)-ethyl]-benzamide], for which the IC50 is below 2000 nM.
In the case of `COc1cc(C(=O)N(Cc2ccc3ccccc3n2)C[C@@H]2CCCN2C2CCC2)cc2c1OC(C)(C)O2` [Example 43, 7-Methoxy-2,2-dimethyl-benzo[1,3]dioxole-5-carboxylic acid ((S)-1-cyclobutyl-pyrrolidin-2-ylmethyl)-quinolin-2-ylmethyl-amide] it was below 500 nM; in that of `COc1cc(C(=O)N(Cc2ccc3ccccc3n2)CC2CN(C)C2)cc2c1OC(C)(C)O2` [Example 49, 7-Methoxy-2,2-dimethyl-benzo[1,3]dioxole-5-carboxylic acid (1-methyl-azetidin-3-ylmethyl)-quinolin-2-ylmethyl-amide], below 500 nM.
With `COc1cc(C(=O)N(Cc2ccc3ccccc3n2)CC2CNC2)cc2c1OC(C)(C)O2` [Example 48, 7-Methoxy-2,2-dimethyl-benzo[1,3]dioxole-5-carboxylic acid azetidin-3-ylmethyl-quinolin-2-ylmethyl-amide], the IC50 is below 500 nM.
In the case of `COc1cc(C(=O)N(C[C@@H]2CCCN2CC2CC2)c2cccc(-c3ccccc3)c2)ccc1OC(F)F` [Example 32, N-Biphenyl-3-yl-(S)—N-(1-cyclopropylmethyl-pyrrolidin-2-ylmethyl)-4-difluoromethoxy-3-methoxy-benzamide] it was below 500 nM; in that of `COc1ccc(C(=O)N(Cc2cnc3ccccc3c2)C[C@@H]2CCCN2CC2CCCCC2)cc1OC` [Example 2, N—(S)-(1-Cyclohexylmethyl-pyrrolidin-2-ylmethyl)-3,4-dimethoxy-N-quinolin-3-ylmethyl-benzamide], below 2000 nM.
In the case of `COc1cc(C(=O)N(Cc2ccc3cc(F)ccc3n2)C[C@@H]2C[C@@H]3CCCC[C@@H]3N2)cc2c1OC(C)(C)O2` [Example 72, 7-Methoxy-2,2-dimethyl-benzo[1,3]dioxole-5-carboxylic acid (6-fluoro-quinolin-2-ylmethyl)-[(2S,3aS,7aS)-1-(octahydro-indol-2-yl)methyl]-amide] it was below 500 nM; in that of `COc1cc(C(=O)N(Cc2nc(-c3ccccc3)cs2)C[C@@H]2CCCN2C2CCC2)cc2c1OC(C)(C)O2` [Example 50, 7-Methoxy-2,2-dimethyl-benzo[1,3]dioxole-5-carboxylic acid ((S)-1-cyclobutyl-pyrrolidin-2-ylmethyl)-(4-phenyl-thiazol-2-ylmethyl)-amide], below 500 nM.
In the case of `COc1ccc(C(=O)N(C[C@@H]2CCCN2CC2CC2)c2cccc(-c3cccc(C#N)c3)c2)cc1OC` [Example 34, N-(3′-Cyano-biphenyl-3-yl)-(S)—N-(1-cyclopropylmethyl-pyrrolidin-2-ylmethyl)-3,4-dimethoxy-benzamide] it was below 10000 nM; in that of `COc1cc(C(=O)N(Cc2cc3ccccc3c[n+]2[O-])C[C@@H]2C[C@@H]3CCCC[C@@H]3N2)cc2c1OC(C)(C)O2` [Example 65, 7-Methoxy-2,2-dimethyl-benzo[1,3]dioxole-5-carboxylic acid [(2S,3aS,7aS)-1-(octahydro-indol-2-yl)methyl]-(2-oxy-isoquinolin-3-ylmethyl)-amide], below 2000 nM; in that of `COc1cc(C(=O)N(CCCN2CCCCC2C)Cc2ncc(-c3ccccc3)s2)cc(OC)c1OC` (stereo not shown) [Example 19, 3,4,5-Trimethoxy-N-[3-(2-methyl-piperidin-1-yl)-propyl]-N-(5-phenyl-thiazol-2-ylmethyl)-benzamide], below 2000 nM.
Consider `COc1ccc(C(=O)N(C[C@@H]2CCCN2CC2CCCCC2)c2cccc(-n3cccn3)c2)cc1OC` [Example 75, N-((S)-1-Cyclohexylmethyl-pyrrolidin-2-ylmethyl)-3,4-dimethoxy-N-(3-pyrazol-1-yl-phenyl)-benzamide], for which the IC50 is below 10000 nM.

Values taken from US7417062B2, “Substituted arylamides” (ChemoCentryx, Inc., priority 2004, dated 2008).
